The results in this text go back to PubChem BioAssay (NCI).

Holding throughout (experiment): inhibition of tumour cell growth, NCI panel, 48 h
Test [1] deals with BT-549 breast.
For test [2], the system named is EKVX NSCLC.
Test [3] has as its system KM12 colon.
In test [4] the test system is LOX IMVI melanoma.
For test [5], the system named is M14 melanoma.
The subject of test [6] is MALME-3M melanoma.
Test [7] concerns MOLT-4 leukemia.
The test system of test [8] is OVCAR-3 ovarian.
Test [9] concerns SK-OV-3 ovarian.
The subject of test [10] is SR leukemia.

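A five-concentration, 48-hour dose response in 96-well plates underlies each endpoint, interpolated linearly between surrounding concentrations. At the GI50, growth is halved. Definition used: TGI = concentration required for complete inhibition of growth.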 Bounds are passed on as bounds.

For `CC1=C[C@H]2c3c(c(O)c(O)c4oc5c(C)cccc5c(=O)c34)[C@H](c3cc(O)c(O)c4oc5c(C)cccc5c(=O)c34)[C@H]2C(C)(C)C1`, the GI50 in test [1] was 1900 nM; in test [2], 2340 nM; in test [3] it was 2560 nM; in test [4], 966 nM; in [5], 1520 nM; in test [6], 2430 nM. The GI50 is 1060 nM in test [7], 1520 nM in [8], 2.46 µM in test [9] and 720 nM in test [10]. Moreover, the TGI in [1] is 5.04 µM; in test [2], 11 µM; in test [3] it was 8.33 µM; in test [4], 2.22 µM; in [5], 5.87 µM; in test [6], 10.7 µM. Also, the TGI is 31 µM in test [7], 9.34 µM in test [8], 9.96 µM in [9] and > 100 µM in test [10].
Regarding `COc1cc(NS(C)(=O)=O)ccc1Nc1c2ccc(Cl)cc2nc2c(OC)cccc12`, the GI50 in test [1] was 441 nM; in [2] it was 6200 nM; in test [3], 268 nM; in [4], 109 nM; in [5], 146 nM; in test [6], 211 nM. Also, the results for the GI50 in [8], in test [9] and in test [10] were 719 nM, 0.117 µM and < 10.9 nM, respectively. The TGI in test [1] was determined as 2.24 µM; in [2], 26.7 µM; in test [3], 1.81 µM; in test [5], 1.83 µM; in test [6], 4.69 µM; in [7] it was 2.15 µM. In addition, the values for the TGI in test [8], in [9] and in test [10] were 2.51 µM, 2 µM and 10.2 µM, respectively.
As to `CCCN(CCC)C(=O)C1=Cc2ccc(-c3ccc(C(=O)N4CCCC4)cc3)cc2N=C(N)C1`, the GI50 was 12800 nM in [1]; 11800 nM in [2]; 5010 nM in test [3]; 9480 nM in test [4]; 5660 nM in test [5]; 8320 nM in test [6]. Further, the GI50 in [7] was 10500 nM; in [8], 8190 nM; in test [9], 18.2 µM; in test [10], 4210 nM. In addition, the TGI amounted to 33.3 µM in [1]; 57.1 µM in [2]; 21.4 µM in [3]; 24.2 µM in test [4]; 22.7 µM in test [5]; 23 µM in test [6]. Moreover, the TGI in test [7] was 64.3 µM; in test [8], 26.2 µM; in [9], 87 µM; in test [10] it was 18.3 µM.
For `C[C@@H]1CN(C(=O)c2ccc(NC(=O)c3cc(O[C@H](C)c4c(Cl)ccc(F)c4Cl)c(N)nn3)cc2)C[C@H](C)N1`, the GI50 in test [1] is 5140 nM; in test [2] it was 5660 nM; in test [3], 55.8 nM; in test [4], 1460 nM; in test [5] it was 1550 nM; in test [6] it was 808 nM. For the same compound, the GI50 is 907 nM in [7], 6440 nM in [8], 11.1 µM in [9] and 10.4 nM in [10]. In addition, the TGI in test [1] is 16.5 µM; in test [2], 21.3 µM; in [3], 13.5 µM; in [4], 3.04 µM; in test [5], 3.19 µM; in test [6], 2.94 µM. Also, the TGI in test [7] is 10.4 µM; in test [8], 19 µM; in test [9] it was 23.1 µM; in [10] it was 2.78 µM.
For `CC(C)(C)NC(C1=CC(C)(C)c2ccccc2C1=O)c1ccccc1` (stereo unspecified), the GI50 is 1610 nM in [1]; 1670 nM in test [2]; 1420 nM in test [3]; 1420 nM in test [4]; 1520 nM in test [5]; 1340 nM in test [6]. The GI50 was 1480 nM in test [7], 1310 nM in [8], 3.04 µM in test [9] and 293 nM in test [10]. The TGI in test [1] is 4.92 µM; in [2], 4.61 µM; in test [3], 2.73 µM; in test [4] it was 2.73 µM; in test [5], 2.85 µM; in test [6] it was 2.97 µM. The TGI in test [7] turned out to be 4.6 µM; in test [8], 2.58 µM; in [9] it was 12.1 µM; in test [10], 1.74 µM.
On to `Cn1nccc1Nc1nccc(-c2cc3c(s2)C(C)(C)N(CCN2CCOCC2)C3=O)n1`, for which the GI50 in [1] is 19000 nM; in test [2] it was 3100 nM; in test [3], 7860 nM; in test [4], 734 nM; in test [5] it was 312 nM; in test [6], 183 nM. Moreover, the GI50 is 25700 nM in test [7], 27200 nM in test [8], 17 µM in test [9] and 23000 nM in test [10]. In addition, the TGI is 99.8 µM in test [1]; > 100 µM in [2]; > 100 µM in test [3]; > 100 µM in test [4]; > 37.4 µM in [5]; > 100 µM in test [6]. The TGI was > 100 µM in [7], > 100 µM in test [8], > 86.2 µM in test [9] and > 100 µM in test [10].
As for `C=C1C(=O)O[C@H]2[C@H]1CC/C(COC(=O)CCCCC(=O)OC/C1=C/CC[C@@]3(C)O[C@H]3[C@H]3OC(=O)C(=C)[C@@H]3CC1)=C\CC[C@@]1(C)O[C@@H]21`, the GI50 was 1370 nM in [1]; 2830 nM in [2]; 2940 nM in test [3]; 1450 nM in test [4]; 1950 nM in [5]; 2100 nM in [6]. For the same compound, the GI50 in test [8] was 840 nM; in test [9] it was 33.4 µM; in test [10] it was 584 nM. Also, the TGI is 3.36 µM in test [1]; > 100 µM in test [2]; 12.4 µM in test [3]; 2.9 µM in [4]; 5.31 µM in test [5]; 5.66 µM in test [6]. Moreover, the TGI in test [8] was 2.14 µM; in [9], > 100 µM; in [10], > 100 µM.
As to `Cc1cc(N2CCCCC2)nc(N(CCCNc2ccnc3cc(Cl)ccc23)Cc2ccco2)n1`, the GI50 in test [1] was 2650 nM; in test [2], 2420 nM; in [3] it was 2820 nM; in test [4] it was 1240 nM; in test [5] it was 1640 nM; in test [6], 2030 nM. The GI50 in test [7] was 2450 nM; in test [8], 2020 nM; in test [9], 3.35 µM; in test [10], 1690 nM. Further, the TGI came to 8.54 µM in [1]; 11.7 µM in test [2]; 11.1 µM in test [3]; 2.65 µM in test [4]; 3.4 µM in [5]; 3.68 µM in test [6]. Besides, the TGI worked out at 7.18 µM in [7], 5.01 µM in test [8], 13.2 µM in [9] and 4.71 µM in [10].
For `O=[N+]([O-])c1ccc(Br)c([N+](=O)[O-])c1`, the GI50 in test [1] was 5320 nM; in test [2], 1840 nM; in test [3], 1800 nM; in [4] it was 1670 nM; in [5], 1740 nM; in test [6], 1960 nM. Also, the GI50 in test [7] was 2520 nM; in test [8], 1880 nM; in test [9], 8.37 µM; in test [10] it was 1560 nM. In addition, the TGI in [1] was 10.9 µM; in [2], 4 µM; in test [3], 3.23 µM; in test [4], 3.38 µM; in [5], 3.27 µM; in test [6], 4.18 µM. For the same compound, the TGI in test [7] was determined as 6.71 µM; in [8], 3.38 µM; in test [9] it was 20.6 µM; in [10] it was 5.64 µM.
With `COc1ccc(CCN2C(=O)C=CC2=O)cc1OC`, the TGI in [1] was 35.3 µM; in test [2] it was 41.1 µM; in [3] it was 40.8 µM; in [4] it was 36.9 µM; in test [5], 24.1 µM; in test [6], 29.8 µM. Also, the TGI in [7] came out at 5.49 µM; in test [8], 36.4 µM; in test [9], 33 µM; in [10] it was 6.7 µM.
Consider `O=C(Nc1ccccc1O)c1cccc(NC2=C(Cl)C(=O)N(Cc3ccccc3)C2=O)c1`, for which the GI50 in [1] was 11900 nM; in [2] it was 15100 nM; in [3], 12900 nM; in [4], 1620 nM; in test [5] it was 4350 nM; in test [6] it was 488 nM. Further, the GI50 in [7] was 712 nM; in test [8] it was 2620 nM; in test [9] it was 12.8 µM; in test [10], 583 nM. The TGI came out at 29.8 µM in test [1]; 28.8 µM in [2]; 26.6 µM in [3]; 3.6 µM in test [4]; 11.3 µM in [5]; 9.19 µM in [6]. Moreover, the TGI in test [7] is 4.01 µM; in [8], 7.85 µM; in test [9], 31.5 µM; in [10] it was 2.57 µM.
As for `C[n+]1c(/C=C\c2ccc(Cl)cc2)ccc2ccccc21`, the GI50 in test [1] was 4780 nM; in test [2], 2450 nM; in test [3], 3600 nM; in test [4], 37400 nM; in test [5], 12900 nM; in [6], 11900 nM. In addition, the GI50 in test [7] is > 100000 nM; in test [8] it was 7340 nM; in test [9], 46.6 µM; in [10], 45800 nM. Besides, the TGI in test [1] was 76.4 µM; in test [2], > 100 µM; in [3], 15 µM; in test [4], > 100 µM; in test [5] it was 46.7 µM; in test [6] it was 36.8 µM. In addition, the TGI in [7] was > 100 µM; in [8] it was 31.4 µM; in test [9], > 100 µM; in [10], > 100 µM.
As to `CCOc1cccc(/C=N/NC(=O)c2ccc(Nc3ccnc(C(F)(F)F)c3)cc2)c1O`, the GI50 in test [1] was 1880 nM; in test [2] it was 1210 nM; in test [3] it was 1620 nM; in [4], 600 nM; in [5], 1190 nM; in [6], 2290 nM. Also, the GI50 was 244 nM in [7], 298 nM in test [8], 2.01 µM in [9] and 236 nM in test [10]. The TGI in [1] is > 85 µM; in test [2] it was > 81.8 µM; in test [3], > 58.4 µM; in [4] it was 24.5 µM; in [5], > 24.6 µM; in [6], > 47.8 µM. Further, the TGI was 28 µM in test [8], > 57.8 µM in test [9] and > 100 µM in [10].
`O=C(CN1CCN(c2ncnc3ccccc23)CC1)Nc1ccc(Cl)cc1C(=O)c1ccccc1Cl`: the GI50 in test [1] was 239 nM; in test [2], 2740 nM; in test [4], 207 nM; in [5] it was 919 nM; in [6], 289 nM; in test [7] it was 472 nM. For the same compound, the values for the GI50 in test [8], in test [9] and in [10] were 273 nM, 3.5 µM and 263 nM, respectively. In addition, the TGI worked out at 0.618 µM in [1]; 7.27 µM in [2]; 5.08 µM in test [3]; 0.471 µM in test [4]; 2.88 µM in test [5]; 2.52 µM in [6]. Also, the TGI worked out at 0.824 µM in test [8] and 36.6 µM in test [9].
On to `CC(=O)N1c2ccccc2C23CCN(C)CC4C(C)OCC(C4CC2=O)C13` (stereo unspecified), for which the TGI in test [1], in test [2], in [3], in [4], in test [5] and in test [6] was > 100 µM in each case. Besides, the TGI in test [7], in test [9] and in test [10] was > 100 µM in each case.
